Biological target: High affinity 3',5'-cyclic-AMP phosphodiesterase 7A (Homo sapiens) (UniProt Q13946)
Test: Inhibition of human recombinant PDE7A using [3H]-cAMP as substrate at 1 uM after 30 mins by two-step radiometric assay

High affinity 3',5'-cyclic-AMP phosphodiesterase 7A (Homo sapiens), sequence (Q13946 whole entry): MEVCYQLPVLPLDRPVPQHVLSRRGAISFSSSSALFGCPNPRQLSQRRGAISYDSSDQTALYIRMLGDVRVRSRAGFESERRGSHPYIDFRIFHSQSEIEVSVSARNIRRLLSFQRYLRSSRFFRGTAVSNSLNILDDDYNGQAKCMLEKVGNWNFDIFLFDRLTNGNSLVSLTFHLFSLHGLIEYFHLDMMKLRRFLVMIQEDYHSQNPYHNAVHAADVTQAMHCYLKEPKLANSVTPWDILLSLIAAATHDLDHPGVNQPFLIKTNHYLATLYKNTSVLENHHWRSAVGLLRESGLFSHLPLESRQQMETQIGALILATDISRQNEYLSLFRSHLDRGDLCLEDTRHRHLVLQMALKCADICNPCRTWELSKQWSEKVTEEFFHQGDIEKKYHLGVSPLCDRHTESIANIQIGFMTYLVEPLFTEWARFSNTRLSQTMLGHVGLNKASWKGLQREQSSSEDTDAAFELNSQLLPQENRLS

Cn1cc(-c2ccc(Oc3nccnc3-c3ccncc3)cc2)c2ncccc21
inhibition: 2.5%

— ChEMBL document CHEMBL3352660, “Design, synthesis and pharmacological evaluation of novel polycyclic heteroarene ethers as PDE10A inhibitors: part II” (Bioorg Med Chem Lett, 2014)
